The values below come from patent publication US20240327411A1, “SIRT6 ACTIVATORS” (The Board of Regents of The University of Texas System, priority 2022, published 2024).

Data set [1] deals with T1, Sirt6 (Homo sapiens, UniProt Q8N6T7). The conditions noted are these: literature value, cited from earlier work.
The subject of data set [2] is BV2 cells. In words: LPS-induced inflammatory gene mRNA expression in BV2 cells, q-PCR. Format: cell-based, murine. The conditions noted are these: for LPS-induced expression of IL-1β, IL-6, MCP-1, and TNFα / LPS-induced IL-1β, IL-6, and MCP-1 response / LPS-induced iNOS and CXCL10 expression / VCAM-1 induction / ICAM-1 induction: BV2 cells, 100 ng/mL LPS 6 hours, mRNA; for LPS-induced expression of IL-1β, IL-6, MCP-1, and TNFα: 30 μM pretreatment 30 minutes; for LPS-induced IL-1β, IL-6, and MCP-1 response / LPS-induced iNOS and CXCL10 expression / VCAM-1 induction / ICAM-1 induction: 30 μM; for LPS-induced proinflammatory cytokine/chemokine production: summary statement.

Data set [3] has as its system A549-hACE2 cells. In words: Cell viability assay in A549-hACE2 cells. As to conditions: 50 μM, 48 h.
The target in data set [4] is T1, Sirt6. In words: Sirt6-dependent peptide deacetylation, FLUOR DE LYS / Sirt6 fluorometric activity kit. The conditions noted are these: mean ± SD, at least two independent experiments; for Activation Fold 30 μM: compound at 30 μM; for Activation Fold 100 μM: compound at 100 μM. Format: biochemical.
Description: Sirt6/Sirt1/Sirt2/Sirt3 activity was tested by Activity Assay Kits (Abcam) according to the manufacturer's instruction with minor modification. […] All experiments were conducted at room temperature.
For data set [5], the system named is SARS-CoV-2. In words: microbe, parasite or virus in culture. Format: cell-based.
Data set [6] concerns the target T1, Sirt6. In words: Nucleosome test: Sirt6-dependent H3K9 deacetylation of nucleosomes from HEK293T cells, Western blot. Format: biochemical. The conditions noted are these: 100 μM, 30° C., 60 minutes. The protocol: (§1) . Nucleosomes extracted from HEK293T cells were incubated with 100 μM of selected compounds or Vehicle at 30° C. for 60 minutes. Acetylated H3K9 and total H3 were detected by Western blot. The level of acetylated H3K9 was quantified by Image Lab software. FIGS. 5B and 5C show the cell viability which was assessed by MTT assay. R28 cells were treated with 30 μM or 100 μM compounds for 24 hours. Data were presented as mean±SEM. The experiment was repeated at least three times. ***p<0.001; ****p<0.0001.
Next, effects of selected compounds were explored for Sirt6-dependent deacetylation of complete nucleosomes extracted from human embryonic kidney (HEK) 293T cells, as nucleosomes represent more physiologically relevant substrates. […]. Briefly, HEK 293T cells in 100 mm dish were lysed with lysis buffer supplemented with PIC and PMSF for 30 min. After centrifugation for 10 min at 5000 rpm at 4° C., supernatant was removed and nuclei pellet was resuspended with digestion buffer supplemented with PIC and PMSF for 5 min at 37° C. Working enzymatic sharing cocktail was added to digest the chromatin, and EDTA was added after incubation to stop the digestion. Digested nucleosome was obtained in the supernatant after centrifugation for 10 min at 15000 rpm at 4° C. and the concentration was quantified by measuring the absorbance at […]. 20 μg nucleosome was incubated in solution (1× buffer, 0.5 μL recombinant Sirt6 and […] NAD, from SIRT6 ACTIVITY ASSAY KIT) for 60 min. To test the effects of the compounds on Sirt6 activity, corresponding compound or DMSO control was added before incubation. The reaction mixture was analyzed by Western blot.
Proteins were extracted from cells with PIERCE RIPA BUFFER (89901, ThermoFisher Scientific), and protein concentration was determined using PIERCE BCA PROTEIN ASSAY KIT (23225, ThermoFisher Scientific). Equal amounts of protein were loaded and separated by SDS-PAGE gel. Next, separated proteins were transferred onto Nitrocellulose Blotting Membranes (A29457237, GE Healthcare Life science), and then the membranes were blocked by 5% non-fat dry milk. After incubation with corresponding primary antibodies against H3K9ac, H3 and Sirt6 at a 1:1000 dilution, or α-tubulin at a 1:5000 dilution, goat anti-mouse or goat anti-rabbit secondary antibodies at a 1:5000 dilution were applied. Finally, membranes were incubated with enhanced chemiluminescent and protein bands were detected by CHEMIDOC imaging system (Bio-Rad). Image-Lab software was used to analyze the intensities of the protein bands.
For orientation: In western blotting, separated proteins are transferred to a membrane and probed.

In data set [7] the test system is retinal precursor cells (R28). In words: MTT cell viability assay in R28 cells. The conditions noted are these: 30 μM, 24 hours. Format: cell-based. The protocol: as §1, with “FIGS. 5A-5C: FIGS. 5A-5C display the deacetylation effect and cytotoxicity of selected compounds. […] Nucleosomes” for “. Nucleosomes”
R28 cells were seeded in 96 well plates at a density of 1×10^4/well overnight, then treated with compounds for 24 h. MTT (MilliporeSigma) was added to cells (20 μL/well) and incubated for 3.5 h. After medium was removed, 100 μL dimethyl sulfoxide (DMSO) was added into each well. Absorbance was measured at 540 nm using a microplate reader.

“And” between values parts separate entries of the source, which are not always exact repeats. Identical values can stand only once.

T1 sequence (Q8N6T7 whole entry): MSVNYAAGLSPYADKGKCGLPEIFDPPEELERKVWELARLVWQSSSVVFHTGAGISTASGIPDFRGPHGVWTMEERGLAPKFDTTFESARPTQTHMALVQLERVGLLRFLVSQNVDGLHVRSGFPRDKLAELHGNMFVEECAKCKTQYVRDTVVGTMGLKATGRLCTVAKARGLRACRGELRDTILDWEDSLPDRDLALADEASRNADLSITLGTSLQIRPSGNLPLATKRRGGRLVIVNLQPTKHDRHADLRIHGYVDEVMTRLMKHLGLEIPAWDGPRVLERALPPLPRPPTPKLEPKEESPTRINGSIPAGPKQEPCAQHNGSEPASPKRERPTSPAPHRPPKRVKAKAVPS

Turning to `O=C(O)c1ccc2c(c1)C(=O)N(c1ccc(N(C(=O)c3c(Cl)cc(Cl)cc3Cl)C(=O)c3c(Cl)cc(Cl)cc3Cl)c(Cl)c1)C2=O` [CL5D], in data set [1] (concentration of 3 μM), the “Sirt6 activation at 3 μM” value is listed as 4 fold.

On to `OC1CN(CCN2CCN(c3ncccc3C3Nc4ccccc4-n4cccc43)CC2)C1` (centres unmarked) [Compound 46, 1-(2-(4-(3-(4,5-Dihydropyrrolo[1,2-a]quinoxalin-4-yl)pyridin-2-yl)piperazin-1-yl)ethyl)azetidin-3-ol], for which, in data set [2], the “LPS-induced expression of IL-1β, IL-6, MCP-1, and TNFα” value (from here on “LPS-induced expression of IL-1β”) is reported as “strongly inhibited”; the “LPS-induced IL-1β, IL-6, and MCP-1 response” value (from here on “LPS-induced IL-1β”) is listed as “almost reversed”; the “LPS-induced iNOS and CXCL10 expression” value was “significantly repressed”; the VCAM-1 induction entry is given as “obviously inhibit”. Moreover, the “LPS-induced proinflammatory cytokine/chemokine production” value in data set [2] is “strongly repressed”. For the same molecule, the “cytotoxicity at the highest tested concentration” value in data set [3] is “none of these compounds exhibited significant cytotoxicity”. For the same molecule, in data set [4], the “Activation Fold 30 μM” value is reported as 3.30 ± 0.11 fold and the “Activation Fold 100 μM” value came out at 6.30 ± 0.25 fold. Further, the “potency in inhibiting SARS-CoV-2 infection (in words)” value in data set [5] is “micromolar potency”. Also, in data set [6], the “acetylation of H3K9 in the nucleosome test” value (from here on “acetylation of H3K9”) is recorded as “significantly decreased the acetylation of H3K9”. In data set [7], the “toxicity on retinal precursor cells (R28)” value (from here on “toxicity … (R28)”) is “no obvious toxicity”.

Regarding `c1ccc2c(c1)NC(c1cccnc1N1CCN(CCN3CCCC3)CC1)c1cccn1-2` (centres unmarked) [Compound 47, 4-(2-(4-(2-(Pyrrolidin-1-yl)ethyl)piperazin-1-yl)pyridin-3-yl)-4,5-dihydropyrrolo[1,2-a]quinoxaline], in data set [2], the “LPS-induced expression of IL-1β” value was “strongly inhibited”; the ICAM-1 induction result was “slight inhibition”; the “LPS-induced IL-1β” value is given as “almost reversed”; the “LPS-induced iNOS and CXCL10 expression” value is “significantly repressed”. Further, in data set [2], the VCAM-1 induction entry is “obviously inhibit” and the “LPS-induced proinflammatory cytokine/chemokine production” value was “strongly repressed”. Moreover, in data set [4], the “Activation Fold 30 μM” value worked out at 4.80 ± 0.19 fold and the “Activation Fold 100 μM” value is reported as 5.38 ± 0.29 fold. For the same molecule, the “acetylation of H3K9” value in data set [6] is “no effect”. In data set [7], the “toxicity … (R28)” value is recorded as “no obvious toxicity”.

In the case of `c1ccc2c(c1)NC(c1cccnc1N1CCN(CCn3ccnc3)CC1)c1cccn1-2` (centres unmarked) [Compound 50, 4-(2-(4-(2-(1H-Imidazol-1-yl)ethyl)piperazin-1-yl)pyridin-3-yl)-4,5-dihydropyrrolo[1,2-a]quinoxaline], in data set [2], the “LPS-induced expression of IL-1β” value is given as “strongly inhibited”; the ICAM-1 induction result is given as “slight inhibition”; the “LPS-induced IL-1β” value was “almost reversed”; the “LPS-induced iNOS and CXCL10 expression” value is reported as “significantly repressed”. In data set [2], the “LPS-induced proinflammatory cytokine/chemokine production” value is listed as “strongly repressed”. In data set [4], the “Activation Fold 30 μM” value was determined as 3.34 ± 0.19 fold and the “Activation Fold 100 μM” value was 6.29 ± 0.02 fold. Moreover, the “acetylation of H3K9” value in data set [6] is “significantly decreased the acetylation of H3K9”. Also, in data set [7], the “toxicity … (R28)” value is reported as “no obvious toxicity”.

Turning to `COC(=O)c1ccc2c(c1)OC(c1cccnc1N1CCN(CCN(C)C)CC1)c1cccn1-2` (centres unmarked) [Compound 71, Methyl 4-(2-(4-(2-(dimethylamino)ethyl)piperazin-1-yl)pyridin-3-yl)-4H-benzo[b]pyrrolo[1,2-d][1,4]oxazine-7-carboxylate], in data set [4], the “Activation Fold 30 μM” value is 4.16 ± 0.18 fold and the “Activation Fold 100 μM” value is 4.82 ± 0.14 fold.

Take `CN(C)CCN1CCN(c2ncccc2C2Oc3cc(CO)ccc3-n3cccc32)CC1` (centres unmarked) [Compound 72, (4-(2-(4-(2-(Dimethylamino)ethyl)piperazin-1-yl)pyridin-3-yl)-4H-benzo[b]pyrrolo[1,2-d][1,4]oxazin-7-yl)methanol]: in data set [4], the “Activation Fold 30 μM” value was 1.59 ± 0.03 fold; the “Activation Fold 100 μM” value is 2.69 fold and 2.69 ± 0.03 fold.

For `CN(C)CCN1CCN(c2ncccc2C2Oc3ccccc3-n3c2ccc3C(F)(F)F)CC1` (centres unmarked) [Compound 76, N,N-Dimethyl-2-(4-(3-(1-(trifluoromethyl)-4H-benzo[b]pyrrolo[1,2-d][1,4]oxazin-4-yl)pyridin-2-yl)piperazin-1-yl)ethan-1-amine], in data set [4], the “Activation Fold 30 μM” value was determined as 2.69 ± 0.02 fold and the “Activation Fold 100 μM” value is recorded as 4.20 ± 0.06 fold.

As to `CCCCCCCC/C=C\CCCCCCCC(=O)NCCO` [Oleoylethanolamide], the “maximum activation (Emax) of Sirt6 deacetylation” value in data set [1] was 2.1 fold.
